Reference: ChEMBL document CHEMBL6074659, “Development of an Intravenously Stable Disulfide-Rich Peptide for the Treatment of Chemotherapy-Induced Neuropathic Pain” (J Med Chem, 2024)
pIC50: −log10 of the molar value. Calls of active or inactive are those of the source. The calls are words filed in the database; no cut-off is given here. Starred links: 1 amine or outer side, 2 acyl side, 3 side chain; linkers in the order of their positions; H or OH if unused. Positions of bridges follow the written chain, without caps; N, C: chain ends. Non-standard residues stand in square brackets, D forms with d. Residues, ends and D or L forms follow the SMILES beside them. Dap = NC[C@H](N)C(=O)O; CH2 = C([*:1])[*:2]

Tests used:
[1] = target: T1, Neuronal acetylcholine receptor; alpha9/alpha10 (Homo sapiens) (UniProt Q9UGM1+Q9GZZ6); assay: Antagonist activity at human alpha9alpha10 nAChR expressed in acetylcholine-induced Xenopus laevis oocytes assessed as inhibition of acetylcholine-induced current at 10 nM at -80 mV holding potential incubated for 5 mins by two electrode voltage-clamp assay; assay type: cell-based; conditions: Oocyte, filed as antagonist
[2] = target: T2, Neuronal acetylcholine receptor; alpha9/alpha10 (Homo sapiens, UniProt Q9GZZ6+Q9UGM1); assay: Antagonist activity at human alpha9alpha10 nAChR expressed in acetylcholine-induced Xenopus laevis oocytes assessed as inhibition of acetylcholine-induced current at -80 mV holding potential incubated for 5 mins by two electrode voltage-clamp assay; assay type: cell-based, Oocyte
[3] = Stability in human serum assessed as parent compound remaining incubated at 24 hrs by RP-HPLC analysis; assay type: ADME, cell-free; conditions: for remaining at 24 h: human serum, read-out: Stability; for Stability: serum, 24 h
[4] = Stability in human serum assessed as parent compound remaining incubated measured upto 48 hrs by RP-HPLC analysis; assay type: ADME, cell-free
[5] = target: T1, Neuronal acetylcholine receptor; alpha9/alpha10 (Homo sapiens); assay: Antagonist activity at human alpha9alpha10 nAChR expressed in acetylcholine-induced Xenopus laevis oocytes assessed as inhibition of acetylcholine-induced current at 10 nM at -80 mV holding potential incubated for 5 mins by two electrode voltage-clamp assay relative to control; assay type: cell-based; conditions: Oocyte
Rattus norvegicus [6] = assay: Analgesic activity in Oxaliplatin-induced cold allodynia SPF male Sprague-Dawley rat assessed as increase in latency at 200 microg/kg, iv measured at 72 hrs by cold plate test; assay type: functional, organism-based; conditions: dose 200.0 µg/kg
[7] = Stability in human serum assessed as parent compound remaining incubated at 48 hrs by RP-HPLC analysis; assay type: ADME, cell-free; conditions: read-out: Stability
[8] = target: Neuronal acetylcholine receptor; alpha3/beta2 (Homo sapiens, UniProt P17787+P32297); assay: Inhibition of human alpha3beta2 nAChR assessed as reduction in acetylcholine-induced current incubated for 5 mins by two electrode voltage-clamp assay; assay type: protein-complex assay
Rattus norvegicus [9] = assay: Analgesic activity in Oxaliplatin-induced cold allodynia SPF male Sprague-Dawley rat assessed as reduction in pain-relieving effect at 500 microg/kg, iv measured at 1 to 24 hrs; assay type: functional, organism-based; conditions: dose 500.0 µg/kg, time 1-24 hrs
[10] = Stability in human serum assessed as half life incubated upto 48 hrs by RP-HPLC analysis; assay type: ADME, cell-free
[11] = target: Neuronal acetylcholine receptor subunit alpha-7 (Homo sapiens, UniProt P36544); assay: Inhibition of human alpha7 nAChR assessed as reduction in acetylcholine-induced current incubated for 5 mins by two electrode voltage-clamp assay
[12] = target: T2, Neuronal acetylcholine receptor; alpha9/alpha10; assay: Inhibition of human alpha9alpha10 nAChR assessed as reduction in acetylcholine-induced current incubated for 5 mins by two electrode voltage-clamp assay; assay type: protein-complex assay
[13] = Antagonist activity at rat alpha9alpha10 nAChR expressed in acetylcholine-induced Xenopus laevis oocytes assessed as inhibition of acetylcholine-induced current at -80 mV holding potential incubated for 5 mins by two electrode voltage-clamp assay; assay type: cell-based; conditions: Oocyte

T2 sequence (Q9UGM1 whole entry): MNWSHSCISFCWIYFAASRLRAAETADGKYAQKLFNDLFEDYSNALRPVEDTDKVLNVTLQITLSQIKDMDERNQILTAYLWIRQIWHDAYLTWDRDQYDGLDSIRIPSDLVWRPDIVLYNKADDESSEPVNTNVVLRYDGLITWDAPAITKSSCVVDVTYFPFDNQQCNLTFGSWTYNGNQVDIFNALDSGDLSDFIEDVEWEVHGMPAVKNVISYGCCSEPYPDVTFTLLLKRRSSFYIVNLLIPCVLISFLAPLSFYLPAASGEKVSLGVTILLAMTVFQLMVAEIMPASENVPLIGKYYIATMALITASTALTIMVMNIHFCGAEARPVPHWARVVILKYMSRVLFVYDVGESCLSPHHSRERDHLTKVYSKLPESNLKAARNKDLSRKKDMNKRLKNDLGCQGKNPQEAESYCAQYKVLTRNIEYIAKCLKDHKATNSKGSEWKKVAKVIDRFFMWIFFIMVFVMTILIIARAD
T2 sequence (Q9GZZ6 whole entry): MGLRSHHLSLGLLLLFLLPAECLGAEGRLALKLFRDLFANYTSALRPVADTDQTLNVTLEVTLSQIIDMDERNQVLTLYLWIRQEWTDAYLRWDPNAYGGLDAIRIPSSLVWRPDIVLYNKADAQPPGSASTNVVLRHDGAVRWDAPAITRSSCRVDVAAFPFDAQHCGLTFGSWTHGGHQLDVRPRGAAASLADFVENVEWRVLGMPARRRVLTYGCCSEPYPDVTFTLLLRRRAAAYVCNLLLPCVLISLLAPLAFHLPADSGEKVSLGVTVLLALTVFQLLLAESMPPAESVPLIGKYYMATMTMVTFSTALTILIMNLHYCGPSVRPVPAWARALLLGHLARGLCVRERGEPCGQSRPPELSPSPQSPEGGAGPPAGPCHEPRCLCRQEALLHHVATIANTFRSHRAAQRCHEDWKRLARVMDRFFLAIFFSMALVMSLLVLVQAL
Sequence of Neuronal acetylcholine receptor; alpha3/beta2 (P17787 whole entry): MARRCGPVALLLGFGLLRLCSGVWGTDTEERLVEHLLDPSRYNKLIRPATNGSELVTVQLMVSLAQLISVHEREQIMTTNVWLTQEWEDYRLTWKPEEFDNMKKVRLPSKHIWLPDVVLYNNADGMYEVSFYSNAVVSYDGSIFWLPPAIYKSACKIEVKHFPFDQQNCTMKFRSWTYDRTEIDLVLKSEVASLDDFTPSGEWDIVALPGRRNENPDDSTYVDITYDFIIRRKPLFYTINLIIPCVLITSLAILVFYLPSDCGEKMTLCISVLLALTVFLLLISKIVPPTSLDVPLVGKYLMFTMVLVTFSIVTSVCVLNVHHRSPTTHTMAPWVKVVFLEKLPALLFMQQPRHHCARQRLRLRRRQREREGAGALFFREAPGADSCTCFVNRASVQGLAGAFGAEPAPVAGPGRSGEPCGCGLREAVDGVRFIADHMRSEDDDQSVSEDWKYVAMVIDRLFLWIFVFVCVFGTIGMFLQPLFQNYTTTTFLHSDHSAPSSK
Sequence of Neuronal acetylcholine receptor; alpha3/beta2 (P32297 whole entry): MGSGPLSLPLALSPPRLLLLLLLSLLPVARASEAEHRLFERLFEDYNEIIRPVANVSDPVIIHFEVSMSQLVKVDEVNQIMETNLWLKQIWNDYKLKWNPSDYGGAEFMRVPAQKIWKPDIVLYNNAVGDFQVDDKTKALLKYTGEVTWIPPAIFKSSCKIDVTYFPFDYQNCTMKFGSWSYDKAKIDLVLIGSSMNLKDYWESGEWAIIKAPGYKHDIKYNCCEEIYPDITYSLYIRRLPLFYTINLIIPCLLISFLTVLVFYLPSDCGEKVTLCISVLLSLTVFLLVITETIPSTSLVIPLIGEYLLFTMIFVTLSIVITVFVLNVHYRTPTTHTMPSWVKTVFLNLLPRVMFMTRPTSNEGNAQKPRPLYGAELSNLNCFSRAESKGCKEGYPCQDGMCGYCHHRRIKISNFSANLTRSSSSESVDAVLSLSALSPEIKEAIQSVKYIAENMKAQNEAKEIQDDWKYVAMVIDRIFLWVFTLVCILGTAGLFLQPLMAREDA
Sequence of Neuronal acetylcholine receptor subunit alpha-7 (P36544 whole entry): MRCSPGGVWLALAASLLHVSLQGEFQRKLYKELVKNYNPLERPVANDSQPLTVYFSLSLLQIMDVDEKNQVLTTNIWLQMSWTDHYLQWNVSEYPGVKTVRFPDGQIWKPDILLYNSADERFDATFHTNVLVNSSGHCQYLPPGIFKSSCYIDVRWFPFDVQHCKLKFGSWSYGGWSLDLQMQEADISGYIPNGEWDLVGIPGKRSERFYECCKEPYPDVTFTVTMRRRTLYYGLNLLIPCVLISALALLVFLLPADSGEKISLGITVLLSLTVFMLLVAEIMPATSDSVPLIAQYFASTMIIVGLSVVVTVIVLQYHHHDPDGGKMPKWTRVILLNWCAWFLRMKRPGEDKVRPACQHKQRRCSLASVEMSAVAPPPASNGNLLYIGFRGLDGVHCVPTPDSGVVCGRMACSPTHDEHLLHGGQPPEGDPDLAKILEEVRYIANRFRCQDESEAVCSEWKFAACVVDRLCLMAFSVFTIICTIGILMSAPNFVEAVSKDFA

Structure (SMILES)	Activity [1]	pIC50 [2]	remaining at 24 h [3]	inhibition ([5]; filed as antagonist)	other results
CC[C@H](C)[C@@H]1NC(=O)[C@H](CC(=O)O)NC(=O)[C@@H]2CCCN2C(=O)[C@H](CC(N)=O)NC(=O)[C@H](CC(N)=O)NC(=O)[C@H](C(C)C)NC(=O)[C@H](CO)NC(=O)[C@@H]2CSCSC[C@H](NC(=O)CN)C(=O)N[C@@H](CSCSC[C@@H](C(N)=O)NC1=O)C(=O)N[C@@H](CN)C(=O)N[C@@H](Cc1cnc[nH]1)C(=O)N1CCC[C@H]1C(=O)N[C@@H](C)C(=O)N2 (H-GCC[Dap]HPACSVNNPDIC-NH2; linker 2-8, 3-16 via CH2)	Active				
CC[C@H](C)[C@@H]1NC(=O)[C@H](CC(=O)O)NC(=O)[C@@H]2CCCN2C(=O)[C@H](CC(N)=O)NC(=O)[C@H](CC(N)=O)NC(=O)[C@H](C(C)C)NC(=O)[C@H](CO)NC(=O)[C@@H]2CSSC[C@@H]3NC(=O)CNC(=O)[C@@H](N)CC(=O)NCC[C@@H](C(N)=O)NC(=O)[C@H](CSSC[C@H](NC3=O)C(=O)N[C@@H](CN)C(=O)N[C@@H](Cc3cnc[nH]3)C(=O)N3CCC[C@H]3C(=O)N[C@@H](C)C(=O)N2)NC1=O (HELM PEPTIDE1{D.G.C.C.[NC[C@H](N[*:1])C(=O)[*:2]].H.P.A.C.S.V.N.N.P.D.I.C.[Dab].[am]}$PEPTIDE1,PEPTIDE1,1:R3-18:R3|PEPTIDE1,PEPTIDE1,3:R3-9:R3|PEPTIDE1,PEPTIDE1,4:R3-17:R3$$$V2.0)		8.48	64.6%	90%	Stability [4]: Stable
CC[C@H](C)[C@@H]1NC(=O)[C@H](CC(=O)O)NC(=O)[C@@H]2CCCN2C(=O)[C@H](CC(N)=O)NC(=O)[C@H](CC(N)=O)NC(=O)[C@H](C(C)C)NC(=O)[C@H](CO)NC(=O)[C@@H]2CSSC[C@@H]3NC(=O)CNC(=O)[C@@H](N)CC(=O)NC[C@@H](C(N)=O)NC(=O)[C@H](CSSC[C@H](NC3=O)C(=O)N[C@@H](CN)C(=O)N[C@@H](Cc3cnc[nH]3)C(=O)N3CCC[C@H]3C(=O)N[C@@H](C)C(=O)N2)NC1=O (HELM PEPTIDE1{D.G.C.C.[NC[C@H](N[*:1])C(=O)[*:2]].H.P.A.C.S.V.N.N.P.D.I.C.[O=C([C@H](CN[*:3])N[*:1])[*:2]].[am]}$PEPTIDE1,PEPTIDE1,1:R3-18:R3|PEPTIDE1,PEPTIDE1,3:R3-9:R3|PEPTIDE1,PEPTIDE1,4:R3-17:R3$$$V2.0)		8.49	57.3%	90%	Stability [3]: 72.4%; Stability [4]: Stable
CC[C@H](C)[C@H](NC(=O)[C@H](CC(=O)O)NC(=O)[C@@H]1CCCN1C(=O)[C@H](CC(N)=O)NC(=O)[C@H](CC(N)=O)NC(=O)[C@@H](NC(=O)[C@H](CO)NC(=O)[C@H](CS)NC(=O)[C@H](C)NC(=O)[C@@H]1CCCN1C(=O)[C@H](Cc1cnc[nH]1)NC(=O)[C@H](CN)NC(=O)[C@H](CS)NC(=O)[C@H](CS)NC(=O)CN)C(C)C)C(=O)N[C@@H](CS)C(N)=O (HELM PEPTIDE1{G.C.C.[NC[C@H](N[*:1])C(=O)[*:2]].H.P.A.C.S.V.N.N.P.D.I.C.[am]}$$$$V2.0)		8.40	58.6%	80%	Activity (Rattus norvegicus [6]): Active; remaining at 48 h [7]: < 30%; Stability [3]: 57.3%; pIC50 [8]: 7.69; Activity (Rattus norvegicus [9]): Active; half-life [10]: 26.2 h; pIC50 [11]: 6.69; pIC50 [12]: 8.40
CC[C@H](C)[C@@H]1NC(=O)[C@H](CC(=O)O)NC(=O)[C@@H]2CCCN2C(=O)[C@H](CC(N)=O)NC(=O)[C@H](CC(N)=O)NC(=O)[C@H](C(C)C)NC(=O)[C@H](CO)NC(=O)[C@@H]2CSCSC[C@H](NC(=O)CN)C(=O)N[C@@H](CSSC[C@@H](C(N)=O)NC1=O)C(=O)N[C@@H](CN)C(=O)N[C@@H](Cc1cnc[nH]1)C(=O)N1CCC[C@H]1C(=O)N[C@@H](C)C(=O)N2 (HELM PEPTIDE1{G.C.C.[NC[C@H](N[*:1])C(=O)[*:2]].H.P.A.C.S.V.N.N.P.D.I.C.[am]}|CHEM1{[C([*:1])[*:2]]}$PEPTIDE1,CHEM1,2:R3-1:R1|PEPTIDE1,CHEM1,8:R3-1:R2|PEPTIDE1,PEPTIDE1,3:R3-16:R3$$$V2.0)	Active				
CC.CC[C@H](C)[C@@H]1NC(=O)[C@H](CC(=O)O)NC(=O)[C@@H]2CCCN2C(=O)[C@H](CC(N)=O)NC(=O)[C@H](CC(N)=O)NC(=O)[C@H](C(C)C)NC(=O)[C@H](CO)NC(=O)[C@@H]2CSSC[C@H](NC(=O)CN)C(=O)N[C@@H](CSCSC[C@@H](C(N)=O)NC1=O)C(=O)N[C@@H](CN)C(=O)N[C@@H](Cc1cnc[nH]1)C(=O)N1CCC[C@H]1C(=O)N[C@@H](C)C(=O)N2 (HELM PEPTIDE1{G.C.C.[NC[C@H](N[*:1])C(=O)[*:2]].H.P.A.C.S.V.N.N.P.D.I.C.[am]}|CHEM1{[C([*:1])[*:2]]}$PEPTIDE1,PEPTIDE1,2:R3-8:R3|PEPTIDE1,CHEM1,3:R3-1:R1|PEPTIDE1,CHEM1,16:R3-1:R2$$$V2.0)	Active				
CC[C@H](C)[C@@H]1NC(=O)[C@H](CC(=O)O)NC(=O)[C@@H]2CCCN2C(=O)[C@H](CC(N)=O)NC(=O)[C@H](CC(N)=O)NC(=O)[C@H](C(C)C)NC(=O)[C@H](CO)NC(=O)[C@@H]2CSSC[C@H](NC(=O)CN)C(=O)N[C@H](C(=O)N[C@@H](CN)C(=O)N[C@@H](Cc3cnc[nH]3)C(=O)N3CCC[C@H]3C(=O)N[C@@H](C)C(=O)N2)C(C)(C)SSC[C@@H](C(N)=O)NC1=O (HELM PEPTIDE1{G.C.[Pen].[NC[C@H](N[*:1])C(=O)[*:2]].H.P.A.C.S.V.N.N.P.D.I.C.[am]}$PEPTIDE1,PEPTIDE1,2:R3-8:R3|PEPTIDE1,PEPTIDE1,3:R3-16:R3$$$V2.0)		8.00	80%	50%	remaining at 48 h [7]: 60%; pIC50 [13]: 8.57
CC[C@H](C)[C@@H]1NC(=O)[C@H](CC(=O)O)NC(=O)[C@@H]2CCCN2C(=O)[C@H](CC(N)=O)NC(=O)[C@H](CC(N)=O)NC(=O)[C@H](C(C)C)NC(=O)[C@H](CO)NC(=O)[C@@H]2CSSC[C@@H]3NC(=O)CNC(=O)[C@@H](N)CCCCNC(=O)CC[C@@H](C(N)=O)NC(=O)[C@H](CSSC[C@H](NC3=O)C(=O)N[C@@H](CN)C(=O)N[C@@H](Cc3cnc[nH]3)C(=O)N3CCC[C@H]3C(=O)N[C@@H](C)C(=O)N2)NC1=O (HELM PEPTIDE1{K.G.C.C.[NC[C@H](N[*:1])C(=O)[*:2]].H.P.A.C.S.V.N.N.P.D.I.C.E.[am]}$PEPTIDE1,PEPTIDE1,1:R3-18:R3|PEPTIDE1,PEPTIDE1,3:R3-9:R3|PEPTIDE1,PEPTIDE1,4:R3-17:R3$$$V2.0)			57.3%		inhibition [5]: < 40%
CC[C@H](C)[C@@H]1NC(=O)[C@H](CC(=O)O)NC(=O)[C@@H]2CCCN2C(=O)[C@H](CC(N)=O)NC(=O)[C@H](CC(N)=O)NC(=O)[C@H](C(C)C)NC(=O)[C@H](CO)NC(=O)[C@@H]2CSSC[C@@H]3NC(=O)CNC(=O)[C@@H](N)CNC(=O)C[C@@H](C(N)=O)NC(=O)[C@H](CSSC[C@H](NC3=O)C(=O)N[C@@H](CN)C(=O)N[C@@H](Cc3cnc[nH]3)C(=O)N3CCC[C@H]3C(=O)N[C@@H](C)C(=O)N2)NC1=O (HELM PEPTIDE1{[N[C@@H](CN[*:3])C(=O)[*:2]].G.C.C.[NC[C@H](N[*:1])C(=O)[*:2]].H.P.A.C.S.V.N.N.P.D.I.C.D.[am]}$PEPTIDE1,PEPTIDE1,1:R3-18:R3|PEPTIDE1,PEPTIDE1,3:R3-9:R3|PEPTIDE1,PEPTIDE1,4:R3-17:R3$$$V2.0)			57.3%		inhibition [5]: < 5%
CC[C@H](C)[C@@H]1NC(=O)[C@H](CC(=O)O)NC(=O)[C@@H]2CCCN2C(=O)[C@H](CC(N)=O)NC(=O)[C@H](CC(N)=O)NC(=O)[C@H](C(C)C)NC(=O)[C@H](CO)NC(=O)[C@@H]2CSSC[C@@H]3NC(=O)CNC(=O)[C@@H](N)CNC(=O)CC[C@@H](C(N)=O)NC(=O)[C@H](CSSC[C@H](NC3=O)C(=O)N[C@@H](CN)C(=O)N[C@@H](Cc3cnc[nH]3)C(=O)N3CCC[C@H]3C(=O)N[C@@H](C)C(=O)N2)NC1=O (HELM PEPTIDE1{[N[C@@H](CN[*:3])C(=O)[*:2]].G.C.C.[NC[C@H](N[*:1])C(=O)[*:2]].H.P.A.C.S.V.N.N.P.D.I.C.E.[am]}$PEPTIDE1,PEPTIDE1,1:R3-18:R3|PEPTIDE1,PEPTIDE1,3:R3-9:R3|PEPTIDE1,PEPTIDE1,4:R3-17:R3$$$V2.0)			57.3%		inhibition [5]: < 5%
CC[C@H](C)[C@@H]1NC(=O)[C@H](CC(=O)O)NC(=O)[C@@H]2CCCN2C(=O)[C@H](CC(N)=O)NC(=O)[C@H](CC(N)=O)NC(=O)[C@H](C(C)C)NC(=O)[C@H](CO)NC(=O)[C@@H]2CSSC[C@@H]3NC(=O)CNC(=O)[C@H](CN)NC(=O)CNC(=O)[C@H](CN)NC(=O)CNC(=O)[C@H](CN)NC(=O)CNC(=O)[C@H](CSSC[C@H](NC3=O)C(=O)N[C@@H](CN)C(=O)N[C@@H](Cc3cnc[nH]3)C(=O)N3CCC[C@H]3C(=O)N[C@@H](C)C(=O)N2)NC1=O (cyclo(ACSVNNPDICG[Dap]G[Dap]G[Dap]GCC[Dap]HP); disulfide 2-18, 10-19)	Active		85.2%		
